Experimental findings from patent publication US12325697B2 (Nimbus Clio, Inc., priority 2021, dated 2025) are described below.

In experiment [1] the target is Recombinant human Cbl-b (aa 36-427) (Homo sapiens (Human), UniProt Q13191). In words: Cbl-b Biochemical Assay (TR-FRET). The following applies: read-out: TR-FRET hCbl-b IC50. In a few lines:
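Two-step TR-FRET: 6 nM biotinylated Cbl-b preincubated 30-60 min with compound, then 60 min at RT with 1-2.5 nM Src-Zap70 and 0.5 mM ATP in HEPES pH 7.0 buffer, 1% DMSO. Stopped with 5 mM EDTA plus 100 nM UBE2D2-Ub-FL-BODIPY and 1 nM streptavidin-Tb, 60 min; 520 nm signal; IC50 from 4-parameter fit.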
For orientation: In TR-FRET formats the signal depends on donor and acceptor labels being close together.

Experiment [2] has as its target Recombinant human c-Cbl (aa 47-435) (Homo sapiens (Human), UniProt P22681). In words: c-Cbl Biochemical Assay (TR-FRET). In a few lines: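 Biotinylated c-Cbl (6 nM) preincubated 30 min RT with compound, then reacted 60-90 min with Src-Zap70 (2.5-10 nM) and 0.5 mM ATP, pH 7.0 HEPES buffer. Stopped with EDTA; 100 nM Bodipy-ubiquitinated UBE2D2 binding read by TR-FRET after 60 min; IC50 from 4-parameter fit.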

Some results are limits rather than exact numbers.

Chain of Recombinant human Cbl-b (aa 36-427) (Q13191 36-427): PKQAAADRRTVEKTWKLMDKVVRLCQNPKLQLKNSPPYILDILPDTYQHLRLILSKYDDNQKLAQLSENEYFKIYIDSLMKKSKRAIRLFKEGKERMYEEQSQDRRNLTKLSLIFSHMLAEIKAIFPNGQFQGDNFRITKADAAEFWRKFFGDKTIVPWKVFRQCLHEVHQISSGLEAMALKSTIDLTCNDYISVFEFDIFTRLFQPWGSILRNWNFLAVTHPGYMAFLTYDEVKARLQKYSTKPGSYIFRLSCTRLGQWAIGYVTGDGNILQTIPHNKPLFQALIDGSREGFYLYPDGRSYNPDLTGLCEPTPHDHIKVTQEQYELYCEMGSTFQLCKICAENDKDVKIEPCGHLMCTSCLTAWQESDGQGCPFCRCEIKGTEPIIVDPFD
Chain of Recombinant human c-Cbl (aa 47-435) (P22681 47-435): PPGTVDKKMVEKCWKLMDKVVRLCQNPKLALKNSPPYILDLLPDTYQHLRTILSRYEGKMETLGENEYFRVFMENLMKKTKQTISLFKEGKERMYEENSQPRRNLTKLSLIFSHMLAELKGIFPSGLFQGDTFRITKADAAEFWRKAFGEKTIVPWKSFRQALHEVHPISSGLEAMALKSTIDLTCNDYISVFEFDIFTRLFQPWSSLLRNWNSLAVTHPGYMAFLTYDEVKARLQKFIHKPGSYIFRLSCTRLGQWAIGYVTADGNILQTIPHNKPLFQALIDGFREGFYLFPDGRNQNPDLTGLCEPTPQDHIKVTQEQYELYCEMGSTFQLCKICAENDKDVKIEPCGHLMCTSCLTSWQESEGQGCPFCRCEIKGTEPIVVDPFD

Consider `CN(Cc1ccc2c(c1)C(=O)N(c1cc(-c3ccc(C#N)cc3-c3nncn3C)cc(C3CC3)n1)C2)CC1(O)CCC1` [AKP-1, 4-{2-Cyclopropyl-6-[6-({[(1-hydroxycyclobutyl)methyl](methyl)amino}methyl)-1-oxo-3H-isoindol-2-yl]pyridin-4-yl}-3-(4-methyl-1,2,4-triazol-3-yl)benzonitrile], for which the IC50 in experiment [1] and in experiment [2] was not above 200 nM in each case.
In the case of `Cn1cnnc1-c1cc(C#N)ccc1-c1cc(C2CC2)nc(N2Cc3ccc([C@@H]4COC[C@H](C5CCC5)N4)cc3C2=O)c1` (stereo in doubt) [AOQ-1, rel-4-(2-{6-[(3R,5S)-5-Cyclobutylmorpholin-3-yl]-1-oxo-3H-isoindol-2-yl}-6-cyclopropylpyridin-4-yl)-3-(4-methyl-1,2,4-triazol-3-yl)benzonitrile], the IC50 in experiment [1] and in experiment [2] was not above 200 nM in each case.
For the molecule `Cn1cnnc1-c1cc(C#N)ccc1-c1cc(C2CC2)nc(N2Cc3c(F)cc(CNCC4(C)CCC4)cc3C2=O)c1` [ALO-2, 4-{2-Cyclopropyl-6-[4-fluoro-6-({[(1-methylcyclobutyl)methyl]amino}methyl)-1-oxo-3H-isoindol-2-yl]pyridin-4-yl}-3-(4-methyl-1,2,4-triazol-3-yl)benzonitrile], the IC50 in experiment [1] and in experiment [2] was not above 200 nM throughout.
Regarding `C[C@@H](NC1COC1)c1ccc2c(c1)C(=O)N(c1cc(-c3ccc(C#N)cc3-c3nncn3C)cc(C3CC3)n1)C2` [AOC-2], the IC50 in experiment [1] and in experiment [2] was not above 200 nM in each case.
As to `Cn1cnnc1-c1cc(C#N)ccc1-c1cc(C2CC2)nc(N2Cc3c(cc(CNCC4COC4)c(F)c3F)C2=O)c1` [ANE-1, 4-[2-Cyclopropyl-6-(4,5-difluoro-6-{[(oxetan-3-ylmethyl)amino]methyl}-1-oxo-3H-isoindol-2-yl)pyridin-4-yl]-3-(4-methyl-1,2,4-triazol-3-yl)benzonitrile], the IC50 in experiment [1] and in experiment [2] was not above 200 nM throughout.
As to `Cn1cnnc1-c1cc(C#N)ccc1-c1cc(C2CC2)nc(N2Cc3ccc(C(C)(C)NCC4CCC4)cc3C2=O)c1` [AOS-2, 4-[2-(6-{2-[(Cyclobutylmethyl)amino]propan-2-yl}-1-oxo-3H-isoindol-2-yl)-6-cyclopropylpyridin-4-yl]-3-(4-methyl-1,2,4-triazol-3-yl)benzonitrile], the IC50 in experiment [1] and in experiment [2] was not above 200 nM throughout.
With `Cn1cnnc1-c1cc(C#N)ccc1-c1cc(C2CC2)nc(N2Cc3ccc(C(C)(C)NCC4COC4)cc3C2=O)c1` [AMT-2, 4-[2-Cyclopropyl-6-(6-{2-[(oxetan-3-ylmethyl)amino]propan-2-yl}-1-oxo-3H-isoindol-2-yl)pyridin-4-yl]-3-(4-methyl-1,2,4-triazol-3-yl) benzonitrile], the IC50 in experiment [1] and in experiment [2] was not above 200 nM throughout.
In the case of `Cn1cnnc1-c1cc(C#N)ccc1-c1cc(C2CC2)nc(N2Cc3ccc(CNC4CC4)cc3C2=O)c1` [ALQ-2, 4-(2-Cyclopropyl-6-{6-[(cyclopropylamino)methyl]-1-oxo-3H-isoindol-2-yl}pyridin-4-yl)-3-(4-methyl-1,2,4-triazol-3-yl)benzonitrile], the half-maximal inhibitory concentration (IC50) in experiment [1] and in experiment [2] was not above 200 nM in each case.
On to `CN(Cc1cc2c(c(C(F)(F)F)c1)CN(c1cc(-c3c(-c4nncn4C)cnn3C)cc(C3CC3)n1)C2=O)CC1(O)CCC1` [AJW-1, 2-{6-Cyclopropyl-4-[2-methyl-4-(4-methyl-1,2,4-triazol-3-yl)pyrazol-3-yl]pyridin-2-yl}-6-({[(1-hydroxycyclobutyl)methyl](methyl)amino}methyl)-4-(trifluoromethyl)-3H-isoindol-1-one], for which the IC50 in experiment [1] and in experiment [2] was not above 200 nM each time.
Turning to `Cn1cnnc1-c1cc(C#N)ccc1-c1cc(C2CC2)nc(N2Cc3ccc(CNC4CCOC4)cc3C2=O)c1` (stereo in doubt) [ANP-2, 4-[2-Cyclopropyl-6-(1-oxo-6-{[(3S)-oxolan-3-ylamino]methyl}-3H-isoindol-2-yl)pyridin-4-yl]-3-(4-methyl-1,2,4-triazol-3-yl)benzonitrile], the IC50 in experiment [1] and in experiment [2] was not above 200 nM throughout.
Take `Cn1cnnc1-c1cc(C#N)ccc1-c1cc(C2CC2)nc(N2Cc3c(F)cc(CN4CC5(COC5)C4)cc3C2=O)c1` [AMS-2, 4-[2-Cyclopropyl-6-(4-fluoro-6-{2-oxa-6-azaspiro [3.3]heptan-6-ylmethyl}-1-oxo-3H-isoindol-2-yl)pyridin-4-yl]-3-(4-methyl-1,2,4-triazol-3-yl)benzonitrile]: the IC50 in experiment [1] and in experiment [2] was not above 200 nM in each case.
As to `C[C@@H](NCC1CC1)c1ccc2c(c1)C(=O)N(c1cc(-c3ccc(C#N)cc3-c3nncn3C)cc(C3CC3)n1)C2` [AJJ-1, (R)-4-(2-Cyclopropyl-6-(6-(1-((cyclopropylmethyl)amino)ethyl)-1-oxoisoindolin-2-yl)pyridin-4-yl)-3-(4-methyl-4H-1,2,4-triazol-3-yl)benzonitrile], the half-maximal inhibitory concentration (IC50) in experiment [1] and in experiment [2] was not above 200 nM each time.
In the case of `CN(Cc1ccc2c(c1)C(=O)N(c1cc(-c3ccc(C#N)cc3-c3nncn3C)cc(C3CC3)n1)C2)C1CCC1` [AOA-1], the IC50 in experiment [1] and in experiment [2] was not above 200 nM each time.
Take `COc1cc(COCC2(O)CCC2)cc2c1CN(c1cc(-c3ccc(F)cc3-c3nncn3C)cc(C3CC3)n1)C2=O` [AIC-11, 2-{6-Cyclopropyl-4-[4-fluoro-2-(4-methyl-1,2,4-triazol-3-yl)phenyl]pyridin-2-yl}-6-{[(1-hydroxycyclobutyl)methoxy]methyl}-4-methoxy-3H-isoindol-1-one]: the concentration for half-maximal inhibition (IC50) in experiment [1] and in experiment [2] was not above 200 nM throughout.
On to `CN(Cc1ccc2c(c1)C(=O)N(c1cc(-c3ccc(C#N)cc3-c3nncn3C)cc(C3CC3)n1)C2)CC1CC1` [AIX-2, 4-[2-Cyclopropyl-6-(6-{[(cyclopropylmethyl)(methyl)amino]methyl}-1-oxo-3H-isoindol-2-yl)pyridin-4-yl]-3-(4-methyl-1,2,4-triazol-3-yl)benzonitrile], for which the IC50 in experiment [1] and in experiment [2] was not above 200 nM throughout.
As to `CNCCOCc1ccc2c(c1)C(=O)N(c1cc(-c3ccc(C#N)cc3-c3nncn3C)cc(C3CC3)n1)C2` [AIY-2, 4-[2-Cyclopropyl-6-(6-{[2-(methylamino)ethoxy]methyl}-1-oxo-3H-isoindol-2-yl)pyridin-4-yl]-3-(4-methyl-1,2,4-triazol-3-yl)benzonitrile], the IC50 in experiment [1] and in experiment [2] was not above 200 nM in each case.
For the molecule `CN(Cc1ccc2c(c1)C(=O)N(c1cc(-c3ccc(F)cc3-c3nncn3C)cc(C3CC3)n1)C2)CC(C)(C)O` [AMM-1, 2-{6-Cyclopropyl-4-[4-fluoro-2-(4-methyl-1,2,4-triazol-3-yl)phenyl]pyridin-2-yl}-6-{[(2-hydroxy-2-methylpropyl)(methyl)amino]methyl}-3H-isoindol-1-one], the IC50 in experiment [1] and in experiment [2] was not above 200 nM each time.
For the molecule `CCOc1cc(-c2ccc(Cl)cc2-c2nncn2C)cc(N2Cc3c(cc(CNCC4(O)CCC4)cc3C(F)(F)F)C2=O)n1` [AHW-1, 2-{4-[4-Chloro-2-(4-methyl-1,2,4-triazol-3-yl)phenyl]-6-ethoxypyridin-2-yl}-6-({[(1-hydroxycyclobutyl)methyl]amino}methyl)-4-(trifluoromethyl)-3H-isoindol-1-one], the IC50 in experiment [1] and in experiment [2] was not above 200 nM each time.

In general, IC50 refers to the concentration that inhibits the measured activity by half.
